Read-outs that look alike come from different tables or passages of the source.

Usually IC50 stands for the concentration that inhibits the measured activity by half.

For this assay, the target named is T1, LpxC enzyme (Escherichia coli, UniProt P0A725).
T1 sequence (P0A725 1-305): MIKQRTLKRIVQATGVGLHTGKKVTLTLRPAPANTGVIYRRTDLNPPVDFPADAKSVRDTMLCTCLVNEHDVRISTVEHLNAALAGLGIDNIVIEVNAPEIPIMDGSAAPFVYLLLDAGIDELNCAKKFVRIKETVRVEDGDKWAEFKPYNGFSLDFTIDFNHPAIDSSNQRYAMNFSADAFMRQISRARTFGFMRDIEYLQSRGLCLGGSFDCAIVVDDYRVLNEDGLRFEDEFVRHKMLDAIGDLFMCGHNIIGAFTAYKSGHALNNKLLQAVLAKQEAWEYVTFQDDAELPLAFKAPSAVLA
In words: standard LpxC enzyme assay (RapidFire high-throughput mass spectrometry). The format is biochemical. The following applies: for IC50: LpxC inhibitory activity; for inhibition at 25 µg/mL: compound at 25 ug/mL. The method, then: The standard LpxC assay consists of 0.2 nM LpxC enzyme, 1.0 μM UDP-3-O—(R-3-hydroxymyristoyl)-N-acetylglucosamine, and test compound, in assay buffer and 2% DMSO. Assay buffer is comprised of 25 mM HEPES, pH 7.3, 150 mM NaCl, 2.0 mM DTT, and 0.01% BSA. The enzyme reaction is carried out in a 96-well assay plate, in a final volume of 102 μL. Solutions of test compounds are prepared in 100% DMSO. Reaction additions, in order, are (1) 2.0 μL compound solution, (2) 80 μL of assay buffer, (3) 10 μL of 10 μM UDP-3-O—(R-3-hydroxymyristoyl)-N-acetylglucosamine (in assay buffer) and, (4) 10 μL of LpxC enzyme (20 nM in assay buffer) to initiate the reaction. In positive control reactions, addition (1) has 2.0 μL of 100% DMSO (without compound); these reactions are used as the total signal (TSB) value. Reactions are incubated at room temperature for 60 minutes when 10 μL of 1 N HCl is added to stop the reaction. The plate is shaken by hand for 10 seconds to ensure complete quenching. Assay plates are sealed with foil tape, and stored at −80° C. for 24-48 hr prior to analysis.
The concentrations of substrate and product in the reaction mixtures are determined with BioTrove's proprietary RapidFire™ high-throughput mass spectrometry (HTMS). Assay mixtures are partially purified with reverse phase chromatography, where they are washed with water containing 5 mM ammonium formate and eluted onto the mass spectrometer in 80% acetonitrile, 20% water, and 5 mM ammonium formate. The mass spectrometry peak areas of the substrate and product are measured to determine the concentration of these analytes. The assay signal is the percentage of substrate that is converted to product. Percent inhibition, % I, in test samples is determined from the following equation: […]

[1] abbreviates: compound at 100 ug/mL, read-out: LpxC enzyme assay rating (% inhibition at indicated concentrations of 100 and 25 ug/mL): 100.
Where [2] appears, read: read-out: Numerical LpxC inhibitory activity (% inhibition): 100.
[3] abbreviates: read-out: LpxC enzyme assay rating (% inhibition at indicated concentrations of 100 and 25 ug/mL): 25.

Take `CCc1ccc(C2CCN(C(=O)CC3(C)NC(=O)NC3=O)CC2)cc1` (centres unmarked) [Compound 76]: for the setting “read-out: IC50 rating”, the IC50 was above 5000 nM.

As for `C#Cc1ccc(C2CCN(C(=O)CC3(C)NC(=O)NC3=O)CC2)cc1` (centres unmarked) [Compound 75], the IC50 (read-out: IC50 rating) was above 5000 nM.

`O=C1NC(=O)C(CC(=O)N2CCC(c3ccc(Br)cc3)CC2)N1` (centres unmarked) [Compound 45]: the inhibition at 100 µg/mL by setting is: under setting [1], above 30%; under setting [2], 68%.

As for `C[C@H](O)[C@@H](NC(=O)c1ccc(C#Cc2ccccc2)cc1)C1NC(=O)NC1=O` (some centres unmarked) [Compound 65], the IC50 (read-out: IC50 rating) is above 5000 nM.

Turning to `CC1(CC(=O)N2CCC(c3ccc(-c4ccncc4)cc3)CC2)NC(=O)NC1=O` (centres unmarked) [Compound 79], the IC50 (read-out: IC50 rating) was above 5000 nM.

With `CCC1(CC(=O)N2CCC(c3ccc(Br)cc3)CC2)NC(=O)NC1=O` (centres unmarked) [Compound 47], under setting [1], the inhibition at 100 µg/mL is above 30%.

For the compound `O=C1NC(=O)C(CC(=O)N2CCC(c3ccc(C#Cc4ccccc4)cc3)CC2)N1` (centres unmarked) [Compound 41], the inhibition at 100 µg/mL under setting [1] is above 30% and the inhibition at 100 µg/mL under setting [2] is 60%.

Turning to `CC1(CC(=O)Nc2ccc(C#Cc3ccccc3)cc2)NC(=O)NC1=O` (centres unmarked) [Compound 33], the IC50 (read-out: IC50 rating) was above 5000 nM.

For `C[C@@H](NC(=O)CC1(C)NC(=O)NC1=O)c1ccc(C#Cc2ccccc2)cc1` (some centres unmarked) [Compound 40], the IC50 (read-out: IC50 rating) was above 5000 nM.

Take `CC1(CC(=O)N2CCC(c3ccc(-c4ccccc4)cc3)CC2)NC(=O)NC1=O` (centres unmarked) [Compound 78]: the IC50 (read-out: IC50 rating) is above 5000 nM.

In the case of `CC1(CC(=O)N2CCN(c3ccc(C#Cc4ccccc4)cc3)CC2)NC(=O)NC1=O` (centres unmarked) [Compound 39], the IC50 is, setting by setting: (read-out: IC50 rating) 250 to 1000 nM; (read-out: IC50 values) 500 nM.

`CC1(CC(=O)N2CCC(c3ccc(Br)cc3)CC2)NC(=O)NC1=O` (centres unmarked) [Compound 46]: the inhibition at 100 µg/mL under setting [1] is above 30%.

Take `CC1(CC(=O)N2CCC(O)(c3ccc(C#Cc4ccccc4)cc3)CC2)NC(=O)NC1=O` (centres unmarked) [Compound 38]: under “read-out: IC50 rating”, the IC50 fell in the range of 1000 to 5000 nM.

For the compound `O=C1NC(=O)C(CC(=O)N2CCN(c3ccc(C#Cc4ccccc4)cc3)CC2)N1` (centres unmarked) [Compound 42], the inhibition at 100 µg/mL under setting [1] is above 30%.

Turning to `CC1(CC(=O)N2CCC(c3ccc(CCN4CCOCC4)cc3)CC2)NC(=O)NC1=O` (centres unmarked) [Compound 77], the IC50 (read-out: IC50 rating) is above 5000 nM.

`CC1(CC(=O)Nc2ccccc2C#Cc2ccccc2)NC(=O)NC1=O` (centres unmarked) [Compound 32]: the inhibition at 25 µg/mL under setting [3] is below 10%.

In the case of `CC1(CC(=O)NCCc2ccc(C#Cc3ccccc3)cc2)NC(=O)NC1=O` (centres unmarked) [Compound 34], the inhibition at 25 µg/mL is 10 to 30% under setting [3] and 30% (read-out: Numerical LpxC inhibitory activity (% inhibition): 25).

For `CC1(CC(=O)N2CCC(c3ccc(C#Cc4ccccc4)cc3)CC2)NC(=O)NC1=O` (centres unmarked) [Compound 36], the IC50 is, setting by setting: (read-out: IC50 rating) 250 to 1000 nM; (read-out: IC50 values) 600 nM.

As to `CCC1(CC(=O)N2CCC(c3ccc(C#Cc4ccccc4)cc3)CC2)NC(=O)NC1=O` (centres unmarked) [Compound 43], the IC50 (read-out: IC50 rating) is 250 to 1000 nM and the IC50 (read-out: IC50 values) was found to be 700 nM.

`C[C@@H](O)[C@H](NC(=O)c1ccc(C#Cc2ccccc2)cc1)C1NC(=O)NC1=O` (some centres unmarked) [Compound 64]: the IC50 (read-out: IC50 rating) is above 5000 nM.

Turning to `CC1(CNC(=O)c2ccc(C#Cc3ccccc3)cc2)NC(=O)NC1=O` (centres unmarked) [Compound 66], where the note is “read-out: IC50 rating”, the IC50 was above 5000 nM.

Take `CC1(CC(=O)N2CCCC(c3ccc(C#Cc4ccccc4)cc3)C2)NC(=O)NC1=O` (centres unmarked) [Compound 37]: for the setting “read-out: IC50 rating”, the IC50 lay within 250 to 1000 nM.

Take `CC1(CC(=O)NCCc2cccc(C#Cc3ccccc3)c2)NC(=O)NC1=O` (centres unmarked) [Compound 35]: the inhibition at 25 µg/mL under setting [3] was below 10%.

The values above are taken from US7998961B2, “Hydantoin derivatives useful as antibacterial agents” (Schering Corporation, priority 2006, dated 2011).
